The source made the active and inactive calls. The calls are words filed in the database; no cut-off is given here.
Legend:
[1] = Inhibition of NLRP3 inflammasome activation in LPS/ATP-stimulated male C57BL/6J mouse BMDM cells assessed as inhibition of IL-1beta secretion […] for 4 hrs followed by compound administration for 30 mins and measured after 1 hrs of ATP addition by ELISA; format: cell-based
[2] = Cytotoxicity against male C57BL/6J mouse BMDM cells; format: functional
BMDM [3] = assay: Inhibition of NLRC4 inflammasome activation in LPS/flagellin-stimulated male C57BL/6J mouse BMDM cells assessed as inhibition of IL-1beta secretion pretreated with LPS followed by compound addition for 4 hrs and measured after 2 hrs of Salmonella typhimurium flagellin addition by ELISA; format: cell-based; conditions: time 6.0 hrs
BMDM [4] = assay: Inhibition of NLRP3 inflammasome activation at initiation phase in LPS/ATP-stimulated male C57BL/6J mouse BMDM cells assessed as inhibition of TNF-alpha secretion […] for 4 hrs followed by compound administration for 30 mins and measured after 1 hrs of ATP addition by ELISA; format: cell-based; conditions: time 1.5 hrs
[5] = biological target: T1, Nlrp3/Pycard (Mus musculus) (UniProt Q8R4B8+Q9EPB4); assay: Inhibition of NLRP3-ASC protein-protein interaction in LPS/ATP stimulated male C57BL/6J mouse BMDM cells by co-immunoprecipitation based Western blot analysis; format: cell-based
T1 sequence (Q8R4B8 whole entry, looked up): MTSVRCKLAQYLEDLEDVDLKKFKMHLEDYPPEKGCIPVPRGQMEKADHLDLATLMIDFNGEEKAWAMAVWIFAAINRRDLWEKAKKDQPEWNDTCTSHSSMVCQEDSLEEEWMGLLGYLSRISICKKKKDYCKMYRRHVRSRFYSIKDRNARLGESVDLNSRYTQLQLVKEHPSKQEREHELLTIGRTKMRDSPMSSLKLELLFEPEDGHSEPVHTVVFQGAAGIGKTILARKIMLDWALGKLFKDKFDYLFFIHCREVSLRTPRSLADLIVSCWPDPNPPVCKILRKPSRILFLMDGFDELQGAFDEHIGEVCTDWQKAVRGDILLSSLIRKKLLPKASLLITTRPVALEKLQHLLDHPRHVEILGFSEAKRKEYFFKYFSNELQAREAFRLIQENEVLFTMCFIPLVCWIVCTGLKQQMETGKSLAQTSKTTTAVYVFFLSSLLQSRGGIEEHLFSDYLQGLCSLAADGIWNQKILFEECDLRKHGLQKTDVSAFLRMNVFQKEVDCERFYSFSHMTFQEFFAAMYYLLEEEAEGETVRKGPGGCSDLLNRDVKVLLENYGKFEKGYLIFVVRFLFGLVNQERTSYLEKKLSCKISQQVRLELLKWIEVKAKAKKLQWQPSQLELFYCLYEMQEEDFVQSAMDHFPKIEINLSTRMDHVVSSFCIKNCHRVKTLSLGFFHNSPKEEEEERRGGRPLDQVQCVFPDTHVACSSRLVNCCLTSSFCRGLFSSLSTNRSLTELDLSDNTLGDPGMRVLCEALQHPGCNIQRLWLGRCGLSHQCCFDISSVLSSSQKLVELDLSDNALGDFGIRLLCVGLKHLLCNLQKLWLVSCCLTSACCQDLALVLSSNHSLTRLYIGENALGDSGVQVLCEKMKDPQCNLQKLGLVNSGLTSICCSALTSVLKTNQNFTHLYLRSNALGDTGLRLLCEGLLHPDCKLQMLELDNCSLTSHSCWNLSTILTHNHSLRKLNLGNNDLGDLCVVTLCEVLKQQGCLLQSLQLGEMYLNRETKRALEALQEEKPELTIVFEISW
T1 sequence (Q9EPB4 whole entry, looked up): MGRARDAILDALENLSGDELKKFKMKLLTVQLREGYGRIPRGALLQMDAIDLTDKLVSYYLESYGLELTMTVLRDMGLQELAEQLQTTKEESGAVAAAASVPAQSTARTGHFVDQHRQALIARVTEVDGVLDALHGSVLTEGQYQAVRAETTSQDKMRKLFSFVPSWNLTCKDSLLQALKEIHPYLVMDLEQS

[6] = Half-life in male ICR (CD-1) mouse at 20 mg/kg, po by LC-MS/MS analysis; format: ADME, organism-based; conditions: in vivo
[7] = Tmax in male ICR (CD-1) mouse at 20 mg/kg, po by LC-MS/MS analysis; format: ADME, organism-based; conditions: in vivo
[8] = Cmax in male ICR (CD-1) mouse at 20 mg/kg, po by LC-MS/MS analysis; format: ADME, organism-based; conditions: in vivo
[9] = AUClast in male ICR (CD-1) mouse at 20 mg/kg, po by LC-MS/MS analysis; format: ADME, organism-based; conditions: in vivo
[10] = Half-life in male ICR (CD-1) mouse at 5 mg/kg, iv by LC-MS/MS analysis; format: ADME, organism-based; conditions: in vivo
Mus musculus [11] = assay: (§1) Anti-inflammatory activity in LPS/ATP-induced acute peritonitis male C57BL/6J mouse model assessed as survival rate at 1 mg/kg, po preadministered with compound for 1 hrs followed by LPS addition for 2 hrs and further administered with ATP and measured 21 hrs post LPS administration relative to control; format: functional; conditions: time 22 hrs
Mus musculus [12] = assay: as §1, with “at 20” for “at 1”; format: functional; conditions: time 22 hrs
[13] = biological target: NACHT, LRR and PYD domains-containing protein 3 (Mus musculus) (UniProt Q8R4B8); assay: In vivo inhibition of NLRP3 inflammasome activation in LPS/ATP-induced acute peritonitis male C57BL/6J mouse model assessed as reduction in IL-1beta level in serum preadministered orally with compound for 1 hrs followed by LPS addition for 2 hrs and measured 12 hrs post ATP administration by ELISA; format: functional, organism-based; conditions: dose 1-20 mg/kg, route po, time 13.0 hrs
Chain of NACHT, LRR and PYD domains-containing protein 3 (Mus musculus) (Q8R4B8 whole entry, the tested form may be a part): as the sequence (Q8R4B8 whole entry, looked up) above

Mus musculus [14] = assay: (§2) Antidiabetic activity in HFD-fed STZ-induced diabetic kidney disease male C57BL/6J mouse model assessed as reduction in urine albumin-to-creatinine ratio at 20 mg/kg fed with high fat diet for 4 weeks followed by STZ administration for 5 days and measured 6 weeks post compound administration via gavage; format: functional, organism-based
Mus musculus [15] = assay: as §2, with “glomerular thickening in kidney” for “urine albumin-to-creatinine ratio”, “gavage by histological analysis” for “gavage”; format: functional, organism-based
Mus musculus [16] = assay: as §2, with “decrease” for “reduction”, “IL-1beta level in serum” for “urine albumin-to-creatinine ratio”, “gavage by ELISA” for “gavage”; format: functional, organism-based
Mus musculus [17] = assay: Effect on TNF-alpha level in serum of HFD-fed STZ-induced diabetic kidney disease male C57BL/6J mouse model at 20 mg/kg fed with high fat diet for 4 weeks followed by STZ administration for 5 days and measured 6 weeks post compound administration via gavage by ELISA; format: functional, organism-based
[18] = biological target: T1, Nlrp3/Pycard (Mus musculus); assay: In vivo inhibition of NLRP3-ASC protein-protein interaction in HFD-fed STZ-induced diabetic kidney disease male C57BL/6J mouse model at 20 mg/kg fed with high fat diet for 4 weeks followed by STZ administration for 5 days and measured 6 weeks post compound administration via gavage by co-immunoprecipitation based Western blot analysis; format: functional, organism-based
Mus musculus [19] = assay: Antidiabetic activity in HFD-fed STZ-induced diabetic kidney disease male C57BL/6J mouse model assessed as reduction in LDL-C level in serum at 20 mg/kg fed with high fat diet for 4 weeks followed by STZ administration for 5 days and measured 6 weeks post compound administration via gavage; format: functional, organism-based
[20] = Drug uptake in brain of male C57BL/6J mouse at 20 mg/kg, po administered as single dose and measured after 8 hrs by LC-MS/MS analysis; format: ADME, organism-based; conditions: in vivo
[21] = Drug uptake in heart of male C57BL/6J mouse at 20 mg/kg, po administered as single dose and measured after 8 hrs by LC-MS/MS analysis; format: ADME, organism-based; conditions: in vivo
[22] = Drug uptake in lung of male C57BL/6J mouse at 20 mg/kg, po administered as single dose and measured after 8 hrs by LC-MS/MS analysis; format: ADME, organism-based; conditions: in vivo
Mus musculus [23] = assay: Anti-colitis activity in DSS-induced acute ulcerative colitis male C57BL/6J mouse model assessed as reduction in body weight loss at 5 mg/kg, po preadministered with DSS for 7 days followed by 3 days of drinking water and measured after 10 days of compound administration; format: functional, organism-based; conditions: time 10.0 day
Mus musculus [24] = assay: Anti-colitis activity in DSS-induced acute ulcerative colitis male C57BL/6J mouse model assessed as improvement in stool consistency at 0.2 to 5 mg/kg, po preadministered with DSS for 7 days followed by 3 days of drinking water and measured after 10 days of compound administration; format: functional, organism-based; conditions: dose 0.2-5 mg/kg, time 10.0 day
Mus musculus [25] = assay: (§3) Anti-colitis activity in DSS-induced acute ulcerative colitis male C57BL/6J mouse model assessed as reduction in fecal bleeding at 0.2 to 5 mg/kg, po preadministered with DSS for 7 days followed by 3 days of drinking water and measured after 10 days of compound administration; format: functional, organism-based; conditions: dose 0.2-5 mg/kg, time 10.0 day
Mus musculus [26] = assay: Anti-colitis activity in DSS-induced acute ulcerative colitis male C57BL/6J mouse model assessed as decrease in disease activity index score at 0.2 to 5 mg/kg, po preadministered with DSS for 7 days followed by 3 days of drinking water and measured after 10 days of compound administration; format: functional, organism-based; conditions: dose 0.2-5 mg/kg, time 10.0 day
Mus musculus [27] = assay: Anti-colitis activity in DSS-induced acute ulcerative colitis male C57BL/6J mouse model assessed as increase in colon length at 0.2 to 5 mg/kg, po preadministered with DSS for 7 days followed by 3 days of drinking water and measured after 10 days of compound administration; format: functional, organism-based; conditions: dose 0.2-5 mg/kg, time 10.0 day
Mus musculus [28] = assay: as §3, with “disruption of mucosal barrier in colon” for “fecal bleeding”, “administration by H and E staining based analysis” for “administration”; format: functional, organism-based; conditions: dose 0.2-5 mg/kg, time 10.0 day
Mus musculus [29] = assay: as §3, with “crypt necrosis in colon” for “fecal bleeding”, “administration by H and E staining based analysis” for “administration”; format: functional, organism-based; conditions: dose 0.2-5 mg/kg, time 10.0 day
Mus musculus [30] = assay: as §3, with “infiltration of inflammatory cells in colon” for “fecal bleeding”, “administration by H and E staining based analysis” for “administration”; format: functional, organism-based; conditions: dose 0.2-5 mg/kg, time 10.0 day
[31] = biological target: NACHT, LRR and PYD domains-containing protein 3 (Mus musculus) (UniProt Q8R4B8); assay: In vivo inhibition of NLRP3 inflammasome activation in DSS-induced acute ulcerative colitis male C57BL/6J mouse model assessed as reduction in IL-1beta level in colon at 0.2 to 5 mg/kg, po preadministered with DSS for 7 days followed by 3 days of drinking water and measured after 10 days of compound administration by ELISA; format: functional, organism-based; conditions: dose 0.2-5 mg/kg, time 10.0 day

**Q.** With `CN1CCC(N(C)S(=O)(=O)NC(=O)Nc2c3c(cc4c2CCC4)CCC3)CC1` as the compound, how does the IC50 [1] read?
**A.** The IC50 was 106 nM.

**Q.** And the CC50 [2]?
**A.** Its CC50 is over 100000 nM.

**Q.** And the inhibition (BMDM [3])?
**A.** The inhibition was “inactive”.

**Q.** And the inhibition (BMDM [4])?
**A.** The inhibition was “inactive”.

**Q.** What about the inhibition [5] of the same compound?
**A.** Its inhibition is “Active”.

**Q.** What about the half-life [6] of the same compound?
**A.** Its half-life is 2.7 h.

**Q.** And the Tmax [7]?
**A.** The Tmax was 0.33 h.

**Q.** What about the Cmax [8] of the same compound?
**A.** The Cmax was 35500 ng/mL.

**Q.** And the AUC(0-t) [9]?
**A.** The AUC(0-t) was 57900 ng·h/mL.

**Q.** What about the half-life [10] of the same compound?
**A.** Its half-life is 3.63 h.

**Q.** What about the survival at 1 mg/kg (Mus musculus [11]) of the same compound?
**A.** Its survival at 1 mg/kg is 75%.

**Q.** What about the survival at 20 mg/kg (Mus musculus [12]) of the same compound?
**A.** Its survival at 20 mg/kg is 100%.

**Q.** And the inhibition [13]?
**A.** The inhibition was “Dose-dependent-effect”.

**Q.** What about the Activity (Mus musculus [14]) of the same compound?
**A.** Its Activity is “Active”.

**Q.** And the Activity (Mus musculus [15])?
**A.** The Activity was “Active”.

**Q.** And the Activity (Mus musculus [16])?
**A.** The Activity was “Active”.

**Q.** And the Activity (Mus musculus [17])?
**A.** Its Activity is “inactive”.

**Q.** And the inhibition [18]?
**A.** Its inhibition is “Active”.

**Q.** What about the Activity (Mus musculus [19]) of the same compound?
**A.** Its Activity is “Active”.

**Q.** What about the Drug uptake [20] of the same compound?
**A.** The Drug uptake was “Not_active”.

**Q.** What about the Drug uptake [21] of the same compound?
**A.** The Drug uptake was “Active”.

**Q.** And the Drug uptake [22]?
**A.** Its Drug uptake is “Active”.

**Q.** What about the Activity (Mus musculus [23]) of the same compound?
**A.** The Activity was “Active; Significant Difference Not Observed”.

**Q.** What about the Activity (Mus musculus [24]) of the same compound?
**A.** The Activity was “Active”.

**Q.** What about the Activity (Mus musculus [25]) of the same compound?
**A.** Its Activity is “Active”.

**Q.** And the Activity (Mus musculus [26])?
**A.** The Activity was “Active”.

**Q.** What about the Activity (Mus musculus [27]) of the same compound?
**A.** The Activity was “inactive”.

**Q.** And the Activity (Mus musculus [28])?
**A.** Its Activity is “Active”.

**Q.** What about the Activity (Mus musculus [29]) of the same compound?
**A.** Its Activity is “Active”.

**Q.** And the Activity (Mus musculus [30])?
**A.** The Activity was “Active”.

**Q.** What about the inhibition [31] of the same compound?
**A.** Its inhibition is “Active”.
